Measurements: the CheMixHub viscosity set
± gives the uncertainty stated by the source.

Assay: xn = mol fraction of the nth substance listed

C[N+](=O)[O-] + CCCO
viscosity [mPa·s]
Conditions	293.15 K	298.15 K	303.15 K	313.15 K
101 kPa, x1 = 0.1338	–	1.55 ± 0.16	–	–
101 kPa, x1 = 0.2584	–	1.24 ± 0.12	–	–
101 kPa, x1 = 0.3737	–	1.011 ± 0.1	–	–
101 kPa, x1 = 0.4815	–	0.8394 ± 0.085	–	–
101 kPa, x1 = 0.5819	–	0.7389 ± 0.074	–	–
101 kPa, x1 = 0.6764	–	0.6772 ± 0.068	–	–
101 kPa, x1 = 0.7649	–	0.6555 ± 0.066	–	–
101 kPa, x1 = 0.8479	–	0.6441 ± 0.065	–	–
101 kPa, x1 = 0.9262	–	0.6388 ± 0.064	–	–
101.33 kPa, x2 = 0.0501	0.636 ± 0.006	–	0.565 ± 0.005	0.508 ± 0.005
101.33 kPa, x2 = 0.1001	0.633 ± 0.006	–	0.56 ± 0.005	0.501 ± 0.005
101.33 kPa, x2 = 0.1501	0.64 ± 0.006	–	0.563 ± 0.005	0.502 ± 0.005
101.33 kPa, x2 = 0.2	0.656 ± 0.006	–	0.574 ± 0.005	0.508 ± 0.005
101.33 kPa, x2 = 0.25	0.681 ± 0.006	–	0.591 ± 0.006	0.519 ± 0.005
101.33 kPa, x2 = 0.3001	0.713 ± 0.007	–	0.612 ± 0.006	0.534 ± 0.005
101.33 kPa, x2 = 0.3501	0.753 ± 0.007	–	0.639 ± 0.006	0.553 ± 0.005
101.33 kPa, x2 = 0.4001	0.795 ± 0.007	–	0.67 ± 0.006	0.576 ± 0.005
101.33 kPa, x2 = 0.45	0.843 ± 0.008	–	0.704 ± 0.007	0.6 ± 0.006
101.33 kPa, x2 = 0.5	0.892 ± 0.008	–	0.74 ± 0.007	0.629 ± 0.006
101.33 kPa, x2 = 0.5501	0.949 ± 0.009	–	0.785 ± 0.007	0.661 ± 0.006
101.33 kPa, x2 = 0.6001	1.01 ± 0.009	–	0.832 ± 0.008	0.697 ± 0.007
101.33 kPa, x2 = 0.65	1.081 ± 0.01	–	0.886 ± 0.008	0.739 ± 0.007
101.33 kPa, x2 = 0.7	1.162 ± 0.011	–	0.95 ± 0.009	0.789 ± 0.007
101.33 kPa, x2 = 0.75	1.26 ± 0.011	–	1.023 ± 0.009	0.845 ± 0.008
101.33 kPa, x2 = 0.8	1.375 ± 0.012	–	1.112 ± 0.01	0.912 ± 0.008
101.33 kPa, x2 = 0.85	1.519 ± 0.014	–	1.218 ± 0.011	0.993 ± 0.009
101.33 kPa, x2 = 0.9	1.693 ± 0.015	–	1.349 ± 0.012	1.094 ± 0.01
101.33 kPa, x2 = 0.95	1.911 ± 0.017	–	1.51 ± 0.014	1.214 ± 0.011

C[N+](=O)[O-] + CCC(C)O
viscosity [mPa·s], 101.33 kPa
Conditions	293.15 K	303.15 K	313.15 K
x2 = 0.05	0.631 ± 0.006	0.562 ± 0.005	0.508 ± 0.005
x2 = 0.1	0.639 ± 0.006	0.564 ± 0.005	0.504 ± 0.005
x2 = 0.15	0.65 ± 0.006	0.571 ± 0.005	0.506 ± 0.005
x2 = 0.2002	0.676 ± 0.006	0.584 ± 0.006	0.515 ± 0.005
x2 = 0.25	0.707 ± 0.007	0.605 ± 0.006	0.528 ± 0.005
x2 = 0.3	0.751 ± 0.007	0.633 ± 0.006	0.546 ± 0.005
x2 = 0.35	0.805 ± 0.007	0.666 ± 0.006	0.574 ± 0.005
x2 = 0.4	0.864 ± 0.008	0.705 ± 0.007	0.595 ± 0.006
x2 = 0.45	0.931 ± 0.009	0.751 ± 0.007	0.625 ± 0.006
x2 = 0.5	0.995 ± 0.009	0.798 ± 0.007	0.659 ± 0.006
x2 = 0.5502	1.081 ± 0.01	0.854 ± 0.008	0.7 ± 0.007
x2 = 0.6	1.169 ± 0.011	0.916 ± 0.008	0.743 ± 0.007
x2 = 0.6499	1.275 ± 0.012	0.991 ± 0.009	0.796 ± 0.007
x2 = 0.7	1.4 ± 0.013	1.079 ± 0.01	0.857 ± 0.008
x2 = 0.75	1.547 ± 0.014	1.187 ± 0.011	0.933 ± 0.009
x2 = 0.8	1.742 ± 0.016	1.316 ± 0.012	1.03 ± 0.009
x2 = 0.85	1.995 ± 0.018	1.5 ± 0.013	1.14 ± 0.01
x2 = 0.9001	2.341 ± 0.021	1.703 ± 0.015	1.283 ± 0.012
x2 = 0.95	2.845 ± 0.025	2.02 ± 0.018	1.477 ± 0.013
